Experiment [1] addresses T1, human Kv1.3 (Homo sapiens, UniProt P22001). The format is cell-based. More on the design: host or cells: HEK293.
Experiment [2] has as its system IL-2 production in human whole blood. The format is cell-based.
For experiment [3], the system named is IFN-g production in human whole blood. In kind it is cell-based.
Experiment [4] has as its system IFNγ production from human PBMCs. The format is cell-based.
Experiment [5] has the same test system. In kind it is cell-based. This is another data set of the same source.
The test system of experiment [6] is T cell proliferation in human PBMCs. In words: T cell proliferation (3H-thymidine incorporation), anti-CD3/anti-CD28 stimulated PBMCs. The format is cell-based. The conditions noted are these: aCD3/aCD28 stimulated PBMCs from two normal donors. The source says: Inhibition of T cell proliferation following anti-CD3 and anti-CD28 antibody stimulation of PBMCs. PBMC's were previously isolated from normal human donor Leukophoresis packs, purified by density gradient centrifugation (Ficoll Hypaque), cryopreserved in CPZ Cryopreservation Medium Complete (INCELL, MCPZF-100 plus 10% DMSO final). PBMC's were thawed (95% viability), washed, and seeded at 2×10^5 cells per well in culture medium (RPMI medium 1640; GIBCO) supplemented with 10% fetal calf serum, 100 U/ml penicillin, […] streptomycin, 2 mM L-glutamine, 100 μM non-essential amino acids, and 20 μM 2-ME) in 96-well flat-bottom tissue culture plates. Cells were pre-incubated with either anti-human CD32 (FcyRII) blocking antibody (per manufacturers instructions EASY SEP Human Biotin Selection Kit #18553, StemCell Technologies Vancouver, BC) or Fc-L10-ShK (100 nM-0.001 nM final) for 45 min. Fc-L10-ShK (100 nM-0.001 nM final) was then added to the cells containing anti-human CD32 blocking antibody while medium was added to the cells containing Fc-L10-ShK. Both sets were incubated for an additional 45 min before stimulating for 48 hr with aCD3/aCD28 (0.2 ng/ml and 100 ng/ml, respectively). Final assay volume was 200 ul. […] Cells were then harvested onto glass fiber filters and radioactivity was measured in a B-scintillation counter.
(Uptake of a labelled nucleoside into DNA is a usual measure of proliferation.)

The subject of experiment [7] is CD40L on T cells in human whole blood. In kind it is cell-based.
For experiment [8], the system named is IL-2R on T cells in human whole blood. The format is cell-based.
The target in experiment [9] is T1, human Kv1.3. Description: Immunohistochemistry, binding to HEK 293 cells overexpressing human Kv1.3. More on the design: expressed in transfected cells. The conditions noted are these: 5 μg/ml, fixed cells, confocal microscopy. Here is the method: Immunohistochemistry analysis of Fc-L10-ShK[1-35] binding to HEK 293 cells overexpressing human Kv1.3. HEK 293 cells overexpressing human Kv1.3 (HEK Kv1.3) were obtained from BioFocus plc (Cambridge, UK) and maintained per manufacturer's recommendation. The parental HEK 293 cell line was used as a control. Cells were plated on Poly-D-Lysine 24 well plates (#35-4414; Becton-Dickinson, Bedford, Mass.) and allowed to grow to approximately 70% confluence. HEK KV1.3 were plated at 0.5×10e5 cells/well in 1 ml/well of medium. HEK 293 cells were plated at a density of 1.5×10e5 cells/well in 1 ml/well of medium. Before staining, cells were fixed with formalin (Sigma HT50-1-1 Formalin solution, diluted 1:1 with PBS/0.5% BSA before use) by removing cell growth medium, adding 0.2 ml/well formalin solution and incubating at room temperature for ten minutes. Cells were stained by incubating with 0.2 ml/well of 5 μg/ml Fc-L10-ShK[1-35] in PBS/BSA for 30′ at room temperature. Fc-L10-ShK[1-35] was aspirated and then the cells were washed one time with PBS/0.5% BSA. Detection antibody (Goat F(ab)2 anti-human IgG-phycoerythrin; Southern Biotech Associates, Birmingham, Ala.) was added to the wells at 5 μg/ml in PBS/0.5% BSA and incubated for 30′ at room temperature. Wash cells once with PBS/0.5% BSA and examine using confocal microscopy (LSM 510 Meta Confocal Microscope; Carl Zeiss AG, Germany). […]

The target of experiment [10] is T1, human Kv1.3. In kind it is binding. Also on record: expressed in transfected cells.

Entries after “also recorded” stand apart in the source; their conditions may differ. Bridge positions count the residues as written; N and C are the ends. Square brackets hold non-standard residues; d marks the D form. Ends that are not written are not given here. Peptide text beside a SMILES is read from it. mPEG 20 kDa = 20 kDa monomethoxy-PEG attached via aldehyde at the N-terminus; hArg = N=C(N)NCCCC[C@H](N)C(=O)O

T1 sequence (P22001 whole entry): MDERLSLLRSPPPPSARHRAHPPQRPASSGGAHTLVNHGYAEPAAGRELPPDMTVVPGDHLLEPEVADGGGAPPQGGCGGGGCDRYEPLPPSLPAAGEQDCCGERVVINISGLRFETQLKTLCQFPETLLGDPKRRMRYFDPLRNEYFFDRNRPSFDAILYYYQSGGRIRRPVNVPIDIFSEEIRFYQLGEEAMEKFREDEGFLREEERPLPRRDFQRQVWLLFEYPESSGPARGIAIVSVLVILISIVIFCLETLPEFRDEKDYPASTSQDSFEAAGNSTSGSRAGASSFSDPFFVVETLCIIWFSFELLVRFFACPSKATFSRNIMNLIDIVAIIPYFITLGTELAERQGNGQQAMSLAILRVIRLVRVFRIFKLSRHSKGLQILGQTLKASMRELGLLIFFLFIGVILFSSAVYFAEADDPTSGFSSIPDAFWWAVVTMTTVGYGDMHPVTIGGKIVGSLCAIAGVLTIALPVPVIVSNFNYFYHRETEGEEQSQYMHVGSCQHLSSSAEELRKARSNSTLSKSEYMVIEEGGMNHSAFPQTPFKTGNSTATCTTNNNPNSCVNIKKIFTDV

Take “Fc-L10-OSK1[E16K,K20D]: Fc-L10 fusion of OSK1 with E16K and K20D substitutions (GVIINVKCKISRQCL[hArg]PCKDAGMRFGKCMNGKCACGGG; cysteine pairing not given here; also: Fc-L10 fusion)”: in [1], the “fold difference in Kv1.3 potency compared to Fc-L10-OSK1” value came to 1.3 fold and the hKv1.1/hKv1.3 is listed as 403.

In experiment [1], “Fc-L10-OSK1[K7S]: Fc-L10 fusion of OSK1 with lysine to serine at position 7” gave a hKv1.1/hKv1.3 of 269. For the molecule “Fc-L10-ShK[2-35]: human IgG1 Fc fused via 10 amino acid linker to ShK[2-35]”, the “thapsigargin-induced IL-2 production in human whole blood (in words)” value in experiment [2] is reported as “suppressed”. In experiment [3], the “thapsigargin-induced IFN-g production in human whole blood (in words)” value is “suppressed”. Turning to “Fc-L10-ShK[1-35]: Fc region of human IgG1 fused via L10 linker to Kv1.3 inhibitor peptide ShK[1-35]”, the “extent of inhibition of IFNγ production” value in experiment [4] is “complete inhibition”. The “extent of inhibition of IFNg production” value in experiment [5] is reported as “nearly complete inhibition”. The “inhibition of T cell proliferation” value in experiment [6] is given as “potently inhibits proliferation of T cells in a dose-dependent manner”. In experiment [7], the “thapsigargin-induced upregulation of CD40L on T cells in human whole blood (in words)” value is given as “suppressed”. Besides, the “thapsigargin-induced upregulation of the IL-2R on T cells in human whole blood (in words)” value in experiment [8] was “suppressed”. For the same molecule, the “binding to Kv1.3 overexpressing versus untransfected HEK 293 cells” value in experiment [9] is on record as “binds to Kv1.3 overexpressing HEK 293 cells but shows little binding to untransfected cells”. Besides, the “response in enzyme-immunoassay on fixed HEK 293 cells stably transfected with human Kv1.3” value in [10] was “dose-dependent increase in response”. For “N-Terminally PEGylated-Des-Arg1-ShK: folded ShK[2-35] N-terminally mono-PEGylated with 20 kDa MeO-PEG-aldehyde by reductive amination ({mPEG 20 kDa}-SCIDTIPKSRCTAFQCKHSMKYRLSFCRKTCGTC; also: folded, disulfides present but pairing not given here)”, the “block of human Kv1.3 current (in words)” value in [1] was “active in blocking human Kv1.3”.

For `CC[C@H](C)[C@@H]1NC(=O)[C@H](CCCCN)NC(=O)[C@@H](NC(=O)[C@H](CCCCN)NC(=O)[C@@H](NC(=O)[C@H](CC(N)=O)NC(=O)[C@@H](NC(=O)[C@@H](NC(=O)[C@@H](NC(=O)CN)C(C)C)[C@@H](C)CC)[C@@H](C)CC)C(C)C)CSSC[C@@H]2NC(=O)[C@H](CCCCN)NC(=O)CNC(=O)[C@H](Cc3ccccc3)NC(=O)[C@H](CCCNC(=N)N)NC(=O)[C@H](CCSC)NC(=O)CNC(=O)[C@H](C)NC(=O)[C@H](CCCCN)NC(=O)[C@H](CCCCN)NC(=O)[C@@H]3CSSC[C@@H](C(=O)N[C@H](C(=O)N4CCC[C@H]4C(=O)N[C@@H](CCCCN)C(=O)O)[C@@H](C)O)NC(=O)[C@H](Cc4c[nH]cn4)NC(=O)[C@H](CSSC[C@H](NC(=O)[C@H](CCC(N)=O)NC(=O)[C@H](CCCNC(=N)N)NC(=O)[C@H](CO)NC1=O)C(=O)N[C@@H](CC(C)C)C(=O)N[C@@H](CCC(=O)O)C(=O)N1CCC[C@H]1C(=O)N3)NC(=O)[C@H](CCCCN)NC(=O)CNC(=O)[C@H](CC(N)=O)NC(=O)[C@H](C)NC2=O` [OSK1[Ala-29]] (H-GVIINVKCKISRQCLEPCKKAGMRFGKCANGKCHCTPK-OH; disulfide 8-28, 14-33, 18-35), the “potency in blocking the cytokine response relative to cyclosporin A” value in experiment [2] is given as “several orders of magnitude more potent”.

For the molecule “SEQ ID No: 4989: OSK1 analog without beta strand 1 (labeled des 1-7), Table 42 (CKISRQCLKPCKDAGMRFGKCMNGKCHC-NH2; ends and bridges not checked)”, the “blockade of the whole blood cytokine response (IL-2 and IFNg; in words)” value (shortened to “blockade”) in experiment [2] is “retain activity in blocking inflammation”. With “IbTx: BKCa channel inhibitor peptide, purchased from Bachem (QFTDVDCSVSKECWSVCKDLFGVDRGKCMGKKCRCYQ; Definition of Artificial Sequence: Synthetic peptide)”, the “thapsigargin-induced IL-2 production in human whole blood (in words)” value in [2] was “no significant activity”. The “thapsigargin-induced IFN-g production in human whole blood (in words)” value in experiment [3] was “no significant activity”. In addition, the “thapsigargin-induced upregulation of CD40L on T cells in human whole blood (in words)” value in [7] is reported as “no significant activity”. In experiment [8], the “thapsigargin-induced upregulation of the IL-2R on T cells in human whole blood (in words)” value was “no significant activity”. As for “Fc-L10-OSK1[K7S,E16K,K20D]: Fc-L10 fusion of OSK1 with K7S, E16K and K20D substitutions”, the hKv1.1/hKv1.3 in experiment [1] stood at 12.

B1: FcLoop-L2-ShK-L2: ShK inserted into human IgG1 Fc loop with Gly linkers (protein)
chain: MDKTHTCPPCPAPELLGGPSVFLFPPKPKDTLMISRTPEVTCVVVDVSHEDPEVKFNWYVDGVEVHNAKTKPREEQYNSTYRVVSVLTVLHQDWLNGKEYKCKVSNKALPAPIEKTISKAKGQPREPQVYTLPPSRDELGGRSCIDTIPKSRCTAFQCKHSMKYRLSFCRKTCGTCGGTKNQVSLTCLVKGFYPSDIAVEWESNGQPENNYKTTPPVLDSDGSFFLYSKLTVDKSRWQQGNVFSCSVMHEALHNHYTQKSLSLSPGK
modifications: Definition of Artificial Sequence: Synthetic protein
As for B1, in [2], the “blockade” value was “potent blockade”.

B2: FcLoop-L2-OsK1-L2: OsK1 inserted into human IgG1 Fc loop between Leu139 and Thr140 with Gly linkers (protein)
chain: MDKTHTCPPCPAPELLGGPSVFLFPPKPKDTLMISRTPEVTCVVVDVSHEDPEVKFNWYVDGVEVHNAKTKPREEQYNSTYRVVSVLTVLHQDWLNGKEYKCKVSNKALPAPIEKTISKAKGQPREPQVYTLPPSRDELGGGVIINVKCKISRQCLEPCKKAGMRFGKCMNGKCHCTPKGGTKNQVSLTCLVKGFYPSDIAVEWESNGQPENNYKTTPPVLDSDGSFFLYSKLTVDKSRWQQGNVFSCSVMHEALHNHYTQKSLSLSPGK
modifications: Definition of Artificial Sequence: Synthetic protein
Take B2: the “blockade” value in [2] is given as “potent blockade”.

B3: PEGylated CH2-OSK1: CH2-OSK1 fusion protein mono-PEGylated with 20 kD methoxy-PEG-aldehyde (conjugate)
chain: MGGHHHHHHGGGPSVFLFPPKPKDTLMISRTPEVTCVVVDVSHEDPEVKFNWYVDGVEVHNAKTKPREEQYNSTYRVVSVLTVLHQDWLNGKEYKCKVSNKALPAPIEKTISGGGGSGGGGSGVIINVKCKISRQCLEPCKKAGMRFGKCMNGKCHCTPK
In the case of B3, the “blockade” value in experiment [2] was “active in blocking inflammation; also recorded: modest blockade”.

(Values after patent US7834164B2 (priority 2006, dated 2010).)
